# Measured values from patent publication US10772909B2, “System and method for insulin-mimetic of cartilage, bone, or osteochondral repair and piezoelectric composite scaffold” (New Jersey Institute of Technology, priority 2016, dated 2020).
# Read-outs that look alike come from different tables or passages of the source.
# Experiments:
# [1] = tested on: PBMCs; assay: CellTiter-Blue viability assay; type: cell-based, human; conditions: 0.01, 0.1 and 1 mM Na2WO4; 4 days exposure
# Description: CellTiter-Blue Assay (Promega, Madison, Wis.) was used to assess the viability of PBMCs. Cell Titre Blue was used to measure the metabolic activity of PBMCs as a surrogate for cell number. Each experimental group was performed in triplicate in 96-well tissue culture plates. After 4 days, CellTiter-Blue reagent (20 μL/well) was added to each well. The plates were incubated and after 4 hours, the fluorescence intensity was measured with microplate reader (Synergy, HTX, BioTek, Winooski, Vt., USA) at 560/590 nm emission. Percent viability was calculated as the fluorescence reading of treated (stimulated) cells divided by untreated healthy cells, which were considered 100% viable as described in Greco et al..
# [2] = tested on: human peripheral blood lymphocytes; conditions: cited from earlier work
# [3] = tested on: aggrecan; assay: Chondrogenesis culture: gene expression by RT-PCR, aggrecan; type: cell-based, human; conditions: for aggrecan gene expression vs 0 and 1 mM groups: CCM without insulin
# Description: (§1) Chondrogenesis Culture. Cryopreserved MSCs were thawed and expanded in GM until 70-80% confluent. Cells were trypsininzed and then seeded on 6 mm diameter scaffold disks at 1.76×10^5 cells/cm^2 and cultured for 28 days in GM, chondrogenic induction medium (CCM), or CCM without insulin, according to previously published methods. CCM consisted of DMEM high glucose containing 4 mM L-glutamine (Invitrogen, Grand Island, N.Y., USA), 0.1 μM dexamethasone (Sigma-Aldrich), 0.17 mM ascorbic acid-2-phosphate (Wako Chemicals, Richmond, Va., USA), 1% ITS+(6.25 µg/mL insulin, 6.25 µg/mL transferrin, 6.25 ng/mL selenous acid, 5.35 μg/ml linoleic acid and 1.25 mg of bovine serum albumin) Premix Culture Supplement (Corning, Corning, N.Y., USA), 1× antibiotic-antimycotic, 1 mM sodium pyruvate (Sigma-Aldrich), 0.35 mM proline (Sigma-Aldrich), and 10 ng/mL recombinant human transforming growth factor-beta3 (TGF-β3, ProSpec, Israel). CCM without insulin consisted of CCM where the 1% ITS+Premix Culture Supplement was substituted with 1% stock solution (6.25 μg/ml transferrin and 6.25 ng/ml selenous acid, 5.35 μg/ml lionleic acid (Sigma-Aldrich) and 1.25 mg of bovine serum albumin (Fisher Scientific). Na2WO4 was added to all media leading to final Na2WO4 concentrations of 0, 0.01, 0.1 and 1 mM. Samples were harvested and analyzed for sulfated glycosaminoglycans (sGAG), cell number and gene expression at day 14 and 28 and for collagen type II and immunostaining at day 28.
# (§2) Gene expression was evaluated using quantitative reverse transcription (RT)-polymerase chain reaction (PCR) analysis. RT-PCR was performed with RNeasy Micro Kit and SYBR Green RT-PCR Kit (Qiagen; Valencia, Calif., USA) using the MX4000 detection system (Stratagene) according to the manufacturer's protocol. Relative gene expression of SOX-9, aggrecan and collagen type II were determined. Samples (n=4 per group) were harvested and digested using Lysis Buffer. RNA was isolated from the samples using RNeasy Micro Kit (Qiagen) including DNA digestion step (RNase Free DNase Set; Qiagen). The RNA quantity and integrity were determined by measuring the absorbance at 260 nm and the absorbance ratio of 260 nm/280 nm, respectively, using Nanodrop™ Spectrophotometer (Thermo Fisher Scientific). Quantitative PCR analysis was performed using QuantiTect SYBR Green supermix including the QuantiTect Primer Assays. The reverse transcription step ran for 30 minutes at 50° C., 15 minutes at 95° C. of PCR activation followed by forty cycle of amplification consisting of 15 s denaturation at 94° C., 30 s of annealing at 55° C., and 30 s of extension at 72° C. A melting curve analysis of the RT-PCR product was included for each reaction. Samples were analyzed in triplicate and the value of each gene was normalized to the reference gene ribosomal protein, large, P0 (RPLP0) for the same sample (ΔCT). Primers were purchased from Qiagen (Hs_ACAN, QT00001365; Hs_SOX9, QT00001498; Hs_COL2A1, QT00049518; and Hs_RPLP0 QT00075012).
# [4] = tested on: SOX-9; assay: Chondrogenesis culture: gene expression by RT-PCR, SOX-9; type: cell-based, human
# Description: as §1, §2
# [5] = tested on: Human MSCs; assay: Chondrogenesis culture: immunostaining, confocal microscopy; type: cell-based; conditions: day 28
# Description: as §1
# Immunostaining was used to observe cell morphology and collagen type II deposition at day 28. Samples were fixed using 4% paraformaldehyde for 20 minutes. Samples were permealized with 0.1% Triton-X for 15 minutes and then non-specific binding was blocked using 5% donkey serum (Sigma-Aldrich, Mo., USA) for 1 hour. Samples were incubated with mouse antihuman collagen type II antibody (EMD Millipore; Calif., USA) in 4° C. overnight. Samples were then incubated with conjugated northern light 493 secondary antibody (Donkey anti-Mouse IgG, Fisher Scientific, Rockford, Ill.) and rhodamine phalloidin (Life Technologies) for actin filament for 1 h. The nucleus was stained with 4′,6-diamidino-2-phenylindole (DAPI, Fisher Scientific). The images were taken using a confocal fluorescence microscope (Cl-si, Nikon, Japan).
compound,measurement,setting,value
"[Na+].[Na+].[O]=[W](=[O])([O-])[O-] [Na2WO4, sodium tungstate]",PBMC cell viability vs 0 mM,[1],No significant differences in cell viability
same,immune response,[2]; 0.01 mM,did not stimulate an immune response
same,immune response,[2]; 0.1 mM,did not stimulate an immune response
same,toxicity,[2]; 1 mM dose,significant toxicity occurred
same,aggrecan gene expression vs 0 and 1 mM groups,"[3]; 0.01 mM Na2WO4, days 14 and 28",significantly higher
same,aggrecan gene expression vs 0 mM,"[3]; 0.01 mM Na2WO4, CCM, day 14, p<0.05",lower aggrecan expression
same,aggrecan gene expression vs 0 and 1 mM groups,"[3]; 0.1 mM Na2WO4, days 14 and 28",significantly higher
same,aggrecan gene expression vs all groups,"[3]; 0.1 mM Na2WO4, CCM, days 14 and 28",significantly higher
same,aggrecan gene expression,"[3]; 1 mM Na2WO4, CCM",lowest gene expression
same,aggrecan gene expression (chondrogenic genes),[3]; GM with Na2WO4,no significant upregulation of chondrogenic genes
same,SOX-9 gene expression vs 0 mM,"[4]; 0.01 mM Na2WO4, CCM without insulin, day 14",significantly higher
same,SOX-9 gene expression vs 0 mM,"[4]; 0.01 mM Na2WO4, CCM, day 28, p<0.05",significantly higher SOX-9
same,SOX-9 gene expression,"[4]; 0.1 mM Na2WO4, CCM, day 14, p<0.05",highest SOX-9 gene expression
same,SOX-9 gene expression vs 0 mM,"[4]; 0.1 mM Na2WO4, CCM, day 28, p<0.01",significantly higher SOX-9
same,SOX-9 gene expression,"[4]; 1 mM Na2WO4, CCM",lowest gene expression
same,SOX-9 gene expression (chondrogenic genes),[4]; GM with Na2WO4,no significant upregulation of chondrogenic genes
same,collagen type II immunostaining vs 0 mM,"[5]; 0.01 mM Na2WO4, GM",more intense
same,collagen type II immunostaining vs 0 mM,"[5]; 0.1 mM Na2WO4, GM",more intense
same,collagen type II immunostaining,"[5]; CCM without insulin groups, except for 1 mM Na2WO4",showed collagen type II staining
same,collagen type II immunostaining vs 0 mM,"[5]; Na2WO4 groups, CCM",more intense collagen type II staining
same,actin filament staining as an indicator of attachment,[5]; all groups,intense actin filament staining
